Assay results as given in patent US7834011B2, “Heterocyclylalkyl derivatives as novel inhibitors of histone deacetylase” (Janssen Pharmaceutica N.V., priority 2006, dated 2010).

Tests used:
[1] = system: A2780 ovarian carcinoma cells; test: Antiproliferative activity on A2780 cells (MTT); type: cell-based; settings: Homo sapiens, 96 h, four days of incubation, read-out: Cellular activity pIC50 C.2 (converted)
Description: Cellular activity of the compounds of formula (I) was determined on A2780 tumour cells using a colorimetric assay for cell toxicity or survival (Mosmann Tim, Journal of Immunological Methods 65: 55-63, 1983)(see example C.2).
All compounds tested were dissolved in DMSO and further dilutions were made in culture medium. Final DMSO concentrations never exceeded 0.1% (v/v) in cell proliferation assays. Controls contained A2780 cells and DMSO without compound and blanks contained DMSO but no cells. MTT was dissolved at 5 mg/ml in PBS. A glycine buffer comprised of 0.1 M glycine and 0.1 M NaCl buffered to pH 10.5 with NaOH (1 N) was prepared (all reagents were from Merck).
The human A2780 ovarian carcinoma cells (a kind gift from Dr. T. C. Hamilton [Fox Chase Cancer Centre, Pennsylvania, USA]) were cultured in RPMI 1640 medium supplemented with 2 mM L-glutamine, 50 μg/ml gentamicin and 10% fetal calf serum. Cells were routinely kept as monolayer cultures at 37° C. in a humidified 5% CO2 atmosphere. Cells were passaged once a week using a trypsin/EDTA solution at a split ratio of 1:40. All media and supplements were obtained from Life Technologies. Cells were free of mycoplasma contamination as determined using the Gen-Probe Mycoplasma Tissue Culture kit (supplier: BioMérieux).
Cells were seeded in NUNC™ 96-well culture plates (Supplier: Life Technologies) and allowed to adhere to the plastic overnight. Densities used for plating were 1500 cells per well in a total volume of 200 μl medium. After cell adhesion to the plates, medium was changed and drugs and/or solvents were added to a final volume of 200 μl. Following four days of incubation, medium was replaced by 200 μl fresh medium and cell density and viability was assessed using an MTT-based assay. To each well, 25 μl MTT solution was added and the cells were further incubated for 2 hours at 37° C. The medium was then carefully aspirated and the blue MTT-formazan product was solubilized by addition of 25 μl glycine buffer followed by 100 μl of DMSO. […] Within an experiment, the results for each experimental condition are the mean of 3 replicate wells. For initial screening purposes, compounds were tested at a single fixed concentration of 10^−6 M. For active compounds, the experiments were repeated to establish full concentration-response curves. For each experiment, controls (containing no drug) and a blank incubation (containing no cells or drugs) were run in parallel. The blank value was subtracted from all control and sample values. For each sample, the mean value for cell growth (in absorbance units) was expressed as a percentage of the mean value for cell growth of the control. […] Herein the effects of test compounds are expressed as pIC50 (the negative log value of the IC50-value)(see Table F-2).

[2] = Metabolic stability with rat hepatocytes cell culture C.5.b; type: in vitro ADME; settings: male, Sprague Dowley, rat hepatocyte cell cultures, read-out: in vitro half-life
Text: Metabolism of drugs means that a lipid-soluble xenobiotic or endobiotic compound is enzymatically transformed into (a) polar, water-soluble, and excretable metabolite(s). The major organ for drug metabolism is the liver. […] However, some metabolites may have enhanced activity or toxic effects. Thus drug metabolism may include both “detoxication” and “toxication” processes. One of the major enzyme systems that determine the organism's capability of dealing with drugs and chemicals is represented by the cytochrome P450 monooxygenases, which are NADPH dependent enzymes. Metabolic stability of compounds can be determined in vitro with the use of subcellular human tissue (see example C.5.a.). Here metabolic stability of the compounds is expressed as % of drug metabolised after 15 minutes incubation of these compounds with microsomes. Quantitation of the compounds was determined by LC-MS analysis. Metabolic stability of compounds can also be determined by calculating the half live of compounds in rat hepatocyte cells (see example C.5.b.).
Rat hepatocytes were isolated from male Sprague Dowley rats. The compounds were dissolved to a 5 mM stock solution in 100% DMSO and incubated at a final concentration of 5 μM for 0, 15, 30, 60 and 120 min with rat hepatocyte cell cultures (0.5 million viable cells/0.5 ml) using 24-well plates.
Samples were prepared for LC-MS by addition of two volumes of DMSO. The samples were thoroughly shaken and subsequently centrifuged at 900 g for 10 min (room temperature). All experiments were performed in triplicate. Of the resulting supernatant 50 μl was analysed by LC-MS.
For LC-MS, elution of samples was performed on a Hypersil BDS C18 column (50×4.6 mm, 5 μm, Thermohypersil, UK). […]
Total injection volume of samples was 50 μL. […] The mass spectrometer was operated in positive ion mode in SIM adjusted to the mass of M+H with a scan width of 1 Da for quantification purposes. […] The metabolic stability of compounds in rat hepatocytes was expressed as in vitro half-lives. […]

melting point: 209 °C | IC50 [1]: 0.1 µM | half-life at 5 μM [2]: 30 to 55 min
SMILES: Cn1c(CNCC2CCN(c3ncc(C(=O)NO)cn3)CC2)nc2ccccc21 [Compound 3]
